Results: PubChem BioAssay (NCI)
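96-well plates; 48 h exposure; 5 concentrations. Endpoints by linear interpolation between flanking doses. Not reached: highest tested concentration assigned. The concentration for full growth arrest is given as TGI.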

Assays:
Assay in all cases: NCI tumour cell line growth inhibition, 48 h
786-0 renal = tested on: 786-0 renal
A498 renal = tested on: A498 renal
A549 NSCLC = tested on: A549 NSCLC
ACHN renal = tested on: ACHN renal
BT-549 breast = tested on: BT-549 breast
CAKI-1 renal = tested on: CAKI-1 renal
CCRF-CEM leukemia = tested on: CCRF-CEM leukemia
COLO 205 colon = tested on: COLO 205 colon
DU-145 prostate = tested on: DU-145 prostate
EKVX NSCLC = tested on: EKVX NSCLC
HCC-2998 colon = tested on: HCC-2998 colon
HCT-116 colon = tested on: HCT-116 colon
HCT-15 colon = tested on: HCT-15 colon
HL-60(TB) leukemia = tested on: HL-60(TB) leukemia
HOP-62 NSCLC = tested on: HOP-62 NSCLC
HOP-92 NSCLC = tested on: HOP-92 NSCLC
HT29 colon = tested on: HT29 colon
IGROV1 ovarian = tested on: IGROV1 ovarian
K-562 leukemia = tested on: K-562 leukemia
KM12 colon = tested on: KM12 colon
LOX IMVI melanoma = tested on: LOX IMVI melanoma
M14 melanoma = tested on: M14 melanoma
MCF7 breast = tested on: MCF7 breast
MDA-MB-231 breast = tested on: MDA-MB-231 breast
MDA-MB-435 = tested on: MDA-MB-435
MDA-N = tested on: MDA-N
MOLT-4 leukemia = tested on: MOLT-4 leukemia
NCI-H226 lung = tested on: NCI-H226 lung
NCI-H23 lung = tested on: NCI-H23 lung
NCI-H460 lung = tested on: NCI-H460 lung
NCI-H522 lung = tested on: NCI-H522 lung
NCI/ADR-RES ovarian = tested on: NCI/ADR-RES ovarian
OVCAR-3 ovarian = tested on: OVCAR-3 ovarian
OVCAR-4 ovarian = tested on: OVCAR-4 ovarian
OVCAR-5 ovarian = tested on: OVCAR-5 ovarian
OVCAR-8 ovarian = tested on: OVCAR-8 ovarian
PC-3 prostate = tested on: PC-3 prostate
RXF 393 renal = tested on: RXF 393 renal
SF-268 CNS = tested on: SF-268 CNS
SF-295 CNS = tested on: SF-295 CNS
SF-539 CNS = tested on: SF-539 CNS
SK-MEL-2 melanoma = tested on: SK-MEL-2 melanoma
SK-MEL-28 melanoma = tested on: SK-MEL-28 melanoma
SK-MEL-5 melanoma = tested on: SK-MEL-5 melanoma
SK-OV-3 ovarian = tested on: SK-OV-3 ovarian
SN12C renal = tested on: SN12C renal
SNB-19 CNS = tested on: SNB-19 CNS
SNB-75 CNS = tested on: SNB-75 CNS
SR leukemia = tested on: SR leukemia
SW-620 colon = tested on: SW-620 colon
TK-10 renal = tested on: TK-10 renal
U251 CNS = tested on: U251 CNS
UACC-257 melanoma = tested on: UACC-257 melanoma
UACC-62 melanoma = tested on: UACC-62 melanoma
UO-31 renal = tested on: UO-31 renal

SMILES: CC(=O)NC1(c2cc3ccccc3s2)CCCCCC1
- TGI (786-0 renal): > 100 µM
- TGI (A498 renal): > 100 µM
- TGI (A549 NSCLC): > 100 µM
- TGI (ACHN renal): > 100 µM
- TGI (BT-549 breast): > 100 µM
- TGI (CAKI-1 renal): > 100 µM
- TGI (CCRF-CEM leukemia): 52.6 µM
- TGI (COLO 205 colon): 50 µM
- TGI (DU-145 prostate): > 100 µM
- TGI (EKVX NSCLC): 57.3 µM
- TGI (HCC-2998 colon): > 100 µM
- TGI (HCT-116 colon): > 100 µM
- TGI (HCT-15 colon): > 100 µM
- TGI (HL-60(TB) leukemia): 55.4 µM
- TGI (HOP-62 NSCLC): > 100 µM
- TGI (HOP-92 NSCLC): > 100 µM
- TGI (HT29 colon): > 100 µM
- TGI (IGROV1 ovarian): > 100 µM
- TGI (K-562 leukemia): 97.3 µM
- TGI (KM12 colon): > 100 µM
- TGI (LOX IMVI melanoma): > 100 µM
- TGI (M14 melanoma): > 100 µM
- TGI (MCF7 breast): > 100 µM
- TGI (MDA-MB-231 breast): > 100 µM
- TGI (MDA-MB-435): > 100 µM
- TGI (MDA-N): > 100 µM
- TGI (MOLT-4 leukemia): 44.4 µM
- TGI (NCI-H226 lung): > 100 µM
- TGI (NCI-H23 lung): > 100 µM
- TGI (NCI-H460 lung): > 100 µM
- TGI (NCI-H522 lung): 39.1 µM
- TGI (NCI/ADR-RES ovarian): > 100 µM
- TGI (OVCAR-3 ovarian): 62.8 µM
- TGI (OVCAR-4 ovarian): > 100 µM
- TGI (OVCAR-5 ovarian): > 100 µM
- TGI (OVCAR-8 ovarian): > 100 µM
- TGI (PC-3 prostate): 60.8 µM
- TGI (RXF 393 renal): 80.6 µM
- TGI (SF-268 CNS): 40.9 µM
- TGI (SF-295 CNS): > 100 µM
- TGI (SF-539 CNS): > 100 µM
- TGI (SK-MEL-2 melanoma): 53.2 µM
- TGI (SK-MEL-28 melanoma): > 100 µM
- TGI (SK-MEL-5 melanoma): 66.7 µM
- TGI (SK-OV-3 ovarian): > 100 µM
- TGI (SN12C renal): > 100 µM
- TGI (SNB-19 CNS): > 100 µM
- TGI (SNB-75 CNS): 92.2 µM
- TGI (SR leukemia): 93.1 µM
- TGI (SW-620 colon): > 100 µM
- TGI (TK-10 renal): > 100 µM
- TGI (U251 CNS): > 100 µM
- TGI (UACC-257 melanoma): > 100 µM
- TGI (UACC-62 melanoma): > 100 µM
- TGI (UO-31 renal): > 100 µM
